This note sets out measurements from patent US11434242B2, “Dopamine-b-hydroxylase inhibitors” (BIAL-PORTELA & Cª, S.A., priority 2017, dated 2022).

This assay has as its target T1, Dopamine beta hydroxylase (Homo sapiens, UniProt P09172).
T1 construct: 125 μl of plasma; tissue Instituto Português do Sangue Transplantação; host or cells: human plasma from healthy donors
T1 sequence (P09172 40-617 limits assumed): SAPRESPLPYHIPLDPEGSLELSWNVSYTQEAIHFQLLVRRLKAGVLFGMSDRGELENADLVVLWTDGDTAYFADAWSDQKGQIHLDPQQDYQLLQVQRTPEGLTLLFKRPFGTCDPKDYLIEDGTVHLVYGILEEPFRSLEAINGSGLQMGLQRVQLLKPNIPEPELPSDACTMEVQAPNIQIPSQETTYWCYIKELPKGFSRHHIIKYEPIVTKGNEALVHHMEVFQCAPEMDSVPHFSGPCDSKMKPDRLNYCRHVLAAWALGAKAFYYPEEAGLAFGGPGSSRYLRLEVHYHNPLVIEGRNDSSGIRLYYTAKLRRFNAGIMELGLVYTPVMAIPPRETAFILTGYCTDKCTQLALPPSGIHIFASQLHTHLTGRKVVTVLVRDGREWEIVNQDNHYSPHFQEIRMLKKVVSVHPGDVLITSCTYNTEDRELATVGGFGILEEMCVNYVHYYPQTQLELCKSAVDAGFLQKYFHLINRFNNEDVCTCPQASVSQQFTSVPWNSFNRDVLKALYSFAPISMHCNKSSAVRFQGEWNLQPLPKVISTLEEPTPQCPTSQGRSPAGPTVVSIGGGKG
The assay can be described thus: Dopamine beta hydroxylase activity in human plasma. It counts as biochemical. Particulars: for Plasma (0.01 μM), activity in % of control: inhibitor 0.01 μM; for Plasma (0.1 μM), activity in % of control: inhibitor 0.1 μM; for Plasma (1 μM), activity in % of control: inhibitor 1 μM. In a few lines:
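Octopamine production from tyramine over 45 min at 37° C, measured photometrically at 330 nm after SCX extraction and periodate oxidation against an octopamine standard curve, indicates plasma DβH activity. Compounds tested at final 10, 100 and 1000 nM in human plasma, pH 5.0 cofactor buffer, 10 min preincubation; results as % of control.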

With `CNCCc1[nH]c(=S)n2c1C[C@@H](c1c(F)ccc(Cl)c1F)C2.Cl` [Example 193, (S)-6-(3-chloro-2,6-difluorophenyl)-1-(2-(methylamino)ethyl)-2,5,6,7-tetrahydro-3H-pyrrolo[1,2-c]imidazole-3-thione Hydrochloride], the “Plasma (0.01 μM), activity in % of control” value was 86.0 % of control and the “Plasma (0.1 μM), activity in % of control” value is 46.3 % of control.

With `CN(C(=O)Cc1c2n(c(=S)n1C)C[C@H](c1c(F)ccc(Br)c1F)C2)[C@@H]1CCOC1` [Example 451, 2-((S)-6-(3-bromo-2,6-difluorophenyl)-2-methyl-3-thioxo-2,5,6,7-tetrahydro-3H-pyrrolo[1,2-c]imidazol-1-yl)-N-methyl-N—((R)-tetrahydrofuran-3-yl)acetamide], the “Plasma (0.01 μM), activity in % of control” value is listed as 39.8 % of control and the “Plasma (0.1 μM), activity in % of control” value is recorded as 5.5 % of control.

Consider `O=C(Cc1[nH]c(=S)n2c1[C@@H]1C[C@]1(c1c(F)ccc(Cl)c1F)C2)N[C@@H]1CCOC1` [Example 392, 2-((5aS,6aR)-5a-(3-chloro-2,6-difluorophenyl)-3-thioxo-2,3,5,5a,6,6a-hexahydrocyclopropa[3,4]pyrrolo[1,2-c]imidazol-1-yl)-N—((R)-tetrahydrofuran-3-yl)acetamide], for which the “Plasma (0.01 μM), activity in % of control” value was 62.3 % of control and the “Plasma (0.1 μM), activity in % of control” value is 13.2 % of control.

For the molecule `O=C(Cc1[nH]c(=S)n2c1C[C@@H](c1c(F)ccc(Br)c1F)C2)N1CCS(=O)(=O)CC1` [Example 136, (S)-2-(6-(3-bromo-2,6-difluorophenyl)-3-thioxo-2,5,6,7-tetrahydro-3H-pyrrolo[1,2-c]imidazol-1-yl)-1-(1,1-dioxidothiomorpholino)ethan-1-one], the “Plasma (0.01 μM), activity in % of control” value is reported as 44.3 % of control and the “Plasma (0.1 μM), activity in % of control” value was 6.8 % of control.

`CN(C(=O)Cc1[nH]c(=S)n2c1[C@@H]1C[C@]1(c1c(F)ccc(Cl)c1F)C2)C1CCOC1` (stereo partly drawn) [Example 396, 2-((5aS,6aR)-5a-(3-chloro-2,6-difluorophenyl)-3-thioxo-2,3,5,5a,6,6a-hexahydrocyclopropa[3,4]pyrrolo[1,2-c]imidazol-1-yl)-N-methyl-N-(tetrahydrofuran-3-yl)acetamide]: the “Plasma (0.01 μM), activity in % of control” value was 66.9 % of control and the “Plasma (0.1 μM), activity in % of control” value is reported as 10.8 % of control.

In the case of `O=C(Cc1[nH]c(=S)n2c1C[C@@H](c1c(F)ccc(Br)c1F)C2)N1CC[S+]([O-])CC1` [Example 166, (S)-2-(6-(3-bromo-2,6-difluorophenyl)-3-thioxo-2,5,6,7-tetrahydro-3H-pyrrolo[1,2-c]imidazol-1-yl)-1-(1-oxidothiomorpholino)ethan-1-one], the “Plasma (0.01 μM), activity in % of control” value is on record as 66.9 % of control and the “Plasma (0.1 μM), activity in % of control” value is listed as 14.1 % of control.

Consider `NC(=O)Cc1[nH]c(=S)n2c1C[C@@H](c1c(F)ccc(Br)c1F)C2` [Example 96, (S)-2-(6-(3-bromo-2,6-difluorophenyl)-3-thioxo-2,5,6,7-tetrahydro-3H-pyrrolo[1,2-c]imidazol-1-yl)acetamide], for which the “Plasma (0.1 μM), activity in % of control” value is listed as 22.4 % of control and the “Plasma (1 μM), activity in % of control” value is 0.8 % of control.

Take `C[C@@H](NCCc1[nH]c(=S)n2c1C[C@H](c1c(F)ccc(Br)c1F)C2)C1CCCCC1` [Example 184, (R)-6-(3-bromo-2,6-difluorophenyl)-1-(2-(((R)-1-cyclohexylethyl)amino)ethyl)-2,5,6,7-tetrahydro-3H-pyrrolo[1,2-c]imidazole-3-thione]: the “Plasma (0.01 μM), activity in % of control” value is 89.2 % of control and the “Plasma (0.1 μM), activity in % of control” value is 43.7 % of control.

Regarding `Cn1c(CC(=O)N[C@H]2CCOC2)c2n(c1=S)C[C@@]1(c3cc(Br)ccc3F)C[C@@H]21` [Example 308, 2-((5aS,6aR)-5a-(5-bromo-2-fluorophenyl)-2-methyl-3-thioxo-2,3,5,5a,6,6a-hexahydrocyclopropa[3,4]pyrrolo[1,2-c]imidazol-1-yl)-N—((S)-tetrahydrofuran-3-yl)acetamide], the “Plasma (0.01 μM), activity in % of control” value is listed as 64.2 % of control and the “Plasma (0.1 μM), activity in % of control” value is 12.8 % of control.

As to `CN(C(=O)Cc1[nH]c(=S)n2c1C[C@H](c1c(F)ccc(Br)c1F)C2)C1CCOCC1` [Example 128, (R)-2-(6-(3-bromo-2,6-difluorophenyl)-3-thioxo-2,5,6,7-tetrahydro-3H-pyrrolo[1,2-c]imidazol-1-yl)-N-methyl-N-(tetrahydro-2H-pyran-4-yl)acetamide], the “Plasma (0.01 μM), activity in % of control” value is on record as 98.1 % of control and the “Plasma (0.1 μM), activity in % of control” value was 29.7 % of control.

As for `O=C(NCc1[nH]c(=S)n2c1C[C@@H](c1c(F)ccc(Cl)c1F)C2)C1CCCC1` [Example 221, (S)—N-((6-(3-chloro-2,6-difluorophenyl)-3-thioxo-2,5,6,7-tetrahydro-3H-pyrrolo[1,2-c]imidazol-1-yl)methyl)cyclopentanecarboxamide], the “Plasma (0.01 μM), activity in % of control” value is 79.3 % of control and the “Plasma (0.1 μM), activity in % of control” value is recorded as 30.0 % of control.

As for `Cn1c(CC(=O)N2CCC[C@H]2C(F)(F)F)c2n(c1=S)C[C@@H](c1c(F)ccc(F)c1F)C2` [Example 248, 2-((R)-2-methyl-3-thioxo-6-(2,3,6-trifluorophenyl)-2,5,6,7-tetrahydro-3H-pyrrolo[1,2-c]imidazol-1-yl)-1-((S)-2-(trifluoromethyl)pyrrolidin-1-yl)ethan-1-one], the “Plasma (0.01 μM), activity in % of control” value is 98.2 % of control and the “Plasma (0.1 μM), activity in % of control” value is given as 51.8 % of control.

As for `Cn1cc(CNC(=O)Cc2c3n(c(=S)n2C)C[C@@]2(c4cc(Cl)ccc4F)C[C@@H]32)cn1` [Example 339, 2-((5aS,6aR)-5a-(5-chloro-2-fluorophenyl)-2-methyl-3-thioxo-2,3,5,5a,6,6a-hexahydrocyclopropa[3,4]pyrrolo[1,2-c]imidazol-1-yl)-N-((1-methyl-1H-pyrazol-4-yl)methyl)acetamide], the “Plasma (0.01 μM), activity in % of control” value was 42.3 % of control and the “Plasma (0.1 μM), activity in % of control” value is given as 4.3 % of control.

With `F.Fc1ccc(Br)cc1[C@]12C[C@H]1c1c(CCNC3CC3)[nH]c(=S)n1C2` [Example 187, (5aS,6aR)-5a-(5-bromo-2-fluorophenyl)-1-(2-(cyclopropylamino)ethyl)-5,5a,6,6a-tetrahydrocyclopropa[3,4]pyrrolo[1,2-c]imidazole-3(2H)-thione hydrofluoride], the “Plasma (0.01 μM), activity in % of control” value is recorded as 72.6 % of control and the “Plasma (0.1 μM), activity in % of control” value was 21.6 % of control.

For the molecule `O=C(Cc1[nH]c(=S)n2c1[C@@H]1C[C@]1(c1cc(Br)ccc1F)C2)NCC1CC1` [Example 143, 2-((5aS,6aR)-5a-(5-bromo-2-fluorophenyl)-3-thioxo-2,3,5,5a,6,6a-hexahydrocyclopropa[3,4]pyrrolo[1,2-c]imidazol-1-yl)-N-(cyclopropylmethyl)acetamide], the “Plasma (0.1 μM), activity in % of control” value was 20.1 % of control and the “Plasma (1 μM), activity in % of control” value was 0.2 % of control.

Consider `Cn1c(CC(=O)NCC2CCCO2)c2n(c1=S)C[C@@H](c1c(F)c(F)cc(F)c1F)C2` (stereo in doubt) [Example 391, 2-((R)-2-methyl-6-(2,3,5,6-tetrafluorophenyl)-3-thioxo-2,5,6,7-tetrahydro-3H-pyrrolo[1,2-c]imidazol-1-yl)-N—(((R)-tetrahydrofuran-2-yl)methyl)acetamide], for which the “Plasma (0.01 μM), activity in % of control” value is on record as 83.8 % of control and the “Plasma (0.1 μM), activity in % of control” value is recorded as 40.7 % of control.

`O=C(Cc1[nH]c(=S)n2c1[C@@H]1C[C@]1(c1cc(Br)ccc1F)C2)NCCc1ccccn1` [Example 145, 2-((5aS,6aR)-5a-(5-bromo-2-fluorophenyl)-3-thioxo-2,3,5,5a,6,6a-hexahydrocyclopropa[3,4]pyrrolo[1,2-c]imidazol-1-yl)-N-(2-(pyridin-2-yl)ethyl)acetamide]: the “Plasma (0.1 μM), activity in % of control” value is 18.2 % of control and the “Plasma (1 μM), activity in % of control” value was 2.0 % of control.

Consider `CN1CCN(C(=O)Cc2c3n(c(=S)n2C)C[C@@]2(c4cc(Cl)ccc4F)C[C@@H]32)CC1` [Example 326, 2-((5aS,6aR)-5a-(5-chloro-2-fluorophenyl)-2-methyl-3-thioxo-2,3,5,5a,6,6a-hexahydrocyclopropa[3,4]pyrrolo[1,2-c]imidazol-1-yl)-1-(4-methylpiperazin-1-yl)ethan-1-one], for which the “Plasma (0.01 μM), activity in % of control” value was 96.6 % of control and the “Plasma (0.1 μM), activity in % of control” value was 59.5 % of control.

As for `Cn1c(CC(=O)N2CCCCC2)c2n(c1=S)C[C@@]1(c3cc(Cl)ccc3F)C[C@@H]21` [Example 311, 2-((5aS,6aR)-5a-(5-chloro-2-fluorophenyl)-2-methyl-3-thioxo-2,3,5,5a,6,6a-hexahydrocyclopropa[3,4]pyrrolo[1,2-c]imidazol-1-yl)-1-(piperidin-1-yl)ethan-1-one], the “Plasma (0.01 μM), activity in % of control” value is 87.2 % of control and the “Plasma (0.1 μM), activity in % of control” value was 21.6 % of control.
